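Briefly, cells in 96-well plates were exposed to five compound concentrations for 48 h, and endpoints were estimated by linear interpolation. Here, GI50 denotes the concentration required for 50% inhibition of growth.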 The source made the active and inactive calls. Cut-off read from the data, not from the text of the source: active = GI50 up to about 1.1 µM and inactive = higher. Peptide text beside a SMILES is read from it. * marks the point of attachment. Boc = CC(C)(C)OC(=O)* A value given as a limit tells only on which side of the number the result lay.

The results in this text go back to ChEMBL document CHEMBL1201862, “PubChem BioAssay data set” (2004).

Some test systems named below: SK-OV-3; NCI-H522; 786-0; ACHN; A498; SF-268; HT-29; SF-295; COLO 205; Malme-3M; CCRF-CEM; IGROV-1; TK-10; HOP-62; OVCAR-5; SF-539; SK-MEL-2; UO-31; CAKI-1; NCI-H460.
Common to all, as to assay: NCI-60 cell line screen, 48 h

As for `O=[N+]([O-])c1ccccc1S(=O)(=O)c1cc(O)cc2c1NCCC2`, the GI50 with SK-OV-3 is 17.9 µM (inactive); in the assay with NCI-H522, 7.5 µM (inactive); in the assay with 786-0, 12.1 µM (inactive); in the assay on ACHN, 14.2 µM (inactive); with A498 it was 13.9 µM (inactive); with SF-268, 20.7 µM (inactive). For the same compound, the GI50 in the assay with HT-29 was 13.3 µM (inactive); with SF-295, 25.3 µM (inactive); with COLO 205, 17.1 µM (inactive); in the assay on Malme-3M it was 17.4 µM (inactive); in the assay on CCRF-CEM, 2.15 µM (inactive); in the assay on IGROV-1 it was 17.1 µM (inactive). Also, the GI50 with TK-10 was 21.4 µM (inactive); in the assay on HOP-62, 21 µM (inactive); in the assay with OVCAR-5 it was 23 µM (inactive); with SF-539, 19.1 µM (inactive); in the assay with SK-MEL-2 it was 23.7 µM (inactive); in the assay on UO-31, 15.5 µM (inactive). Besides, the GI50 in the assay with CAKI-1 was 35.2 µM (inactive); in the assay on NCI-H460 it was 23.4 µM (inactive).

For the compound `CC(C)(C)OC(=O)NCCC1SC2C=CC1C2` (stereo not given), the GI50 in the assay on SK-OV-3, with NCI-H522, with 786-0, in the assay on ACHN, with A498 and in the assay with SF-268 was > 100 µM (inactive) each time. The GI50 in the assay with HT-29, with SF-295, in the assay with COLO 205, in the assay with Malme-3M, in the assay on CCRF-CEM and with IGROV-1 was > 100 µM (inactive) throughout. Further, the GI50 with TK-10, in the assay on HOP-62, in the assay with OVCAR-5, with SF-539, in the assay on SK-MEL-2 and in the assay with UO-31 was > 100 µM (inactive) each time. In addition, the GI50 with CAKI-1 and in the assay on NCI-H460 was > 100 µM (inactive) throughout.

In the case of `COc1ccc2c(-c3ccc(OCCN(C)C)cc3)c(Oc3ccc(Cl)cc3)c(=O)oc2c1`, the GI50 in the assay with SK-OV-3 is 7.4 µM (inactive); with NCI-H522, 4.07 µM (inactive); in the assay with 786-0, 2.59 µM (inactive); in the assay on ACHN, 7.23 µM (inactive); in the assay with A498, 14 µM (inactive); with SF-268, 7.76 µM (inactive). For the same compound, the GI50 in the assay on HT-29 is 6.56 µM (inactive); in the assay with SF-295 it was 2.12 µM (inactive); in the assay on COLO 205, 2.23 µM (inactive); in the assay with Malme-3M, 1.74 µM (inactive); with CCRF-CEM, 4.42 µM (inactive); with IGROV-1, 3.37 µM (inactive). Further, the GI50 in the assay with TK-10 is 7.82 µM (inactive); in the assay on HOP-62 it was 4.21 µM (inactive); in the assay with OVCAR-5 it was 15.6 µM (inactive); in the assay with SF-539 it was 3.74 µM (inactive); in the assay on SK-MEL-2 it was 5 µM (inactive); with UO-31, 3.28 µM (inactive). Moreover, the results for the GI50 with CAKI-1 and in the assay with NCI-H460 were 11.1 µM (inactive) and 5.58 µM (inactive), respectively.

As for `COC(Cc1ccccc1)NC(C)=O` (stereo not given), the GI50 with SK-OV-3, with NCI-H522, in the assay on 786-0, in the assay with ACHN, in the assay on A498 and with SF-268 was > 100 µM (inactive) each time. Moreover, the GI50 in the assay on HT-29, in the assay with SF-295, with COLO 205, with Malme-3M, in the assay with CCRF-CEM and with IGROV-1 was > 100 µM (inactive) each time. In addition, the GI50 in the assay on TK-10, with HOP-62, in the assay with OVCAR-5, with SF-539, with SK-MEL-2 and with UO-31 was > 100 µM (inactive) each time. For the same compound, the GI50 in the assay with CAKI-1 and in the assay on NCI-H460 was > 100 µM (inactive) in each case.

`C#CCOC(=O)C(N)CC(N)=O` (stereo not given): the GI50 in the assay with SK-OV-3, with NCI-H522, with 786-0, with ACHN, in the assay with A498 and with SF-268 was > 100 µM (inactive) each time. The GI50 is > 31.6 µM (inactive) in the assay on HT-29; > 100 µM (inactive) with SF-295; > 100 µM (inactive) in the assay with COLO 205; > 100 µM (inactive) in the assay with Malme-3M; > 100 µM (inactive) in the assay with CCRF-CEM; > 100 µM (inactive) in the assay on IGROV-1. The GI50 with TK-10, in the assay on HOP-62, in the assay on OVCAR-5, in the assay on SF-539, in the assay on SK-MEL-2 and in the assay on UO-31 was > 100 µM (inactive) in each case. The GI50 in the assay on CAKI-1 and in the assay with NCI-H460 was > 100 µM (inactive) throughout.

In the case of `CC(C)=CCC/C(C)=C/CC/C(C)=C/[C@@H]1[C@@H](CO)[C@]1(C)CC/C=C(\C)CCC=C(C)C`, the GI50 in the assay on SK-OV-3 was > 100 µM (inactive); with NCI-H522, 17.1 µM (inactive); in the assay with 786-0, 18.4 µM (inactive); with ACHN it was 17.2 µM (inactive); in the assay with A498 it was > 100 µM (inactive); in the assay on SF-268, 19.4 µM (inactive). Also, the GI50 was 42.8 µM (inactive) in the assay on HT-29; 60.8 µM (inactive) with SF-295; 63.1 µM (inactive) with COLO 205; > 100 µM (inactive) with Malme-3M; 0.251 µM (active) with CCRF-CEM; 12.5 µM (inactive) in the assay on IGROV-1. For the same compound, the GI50 is 55.2 µM (inactive) with TK-10; 69.7 µM (inactive) in the assay with HOP-62; 49.4 µM (inactive) with OVCAR-5; 22 µM (inactive) in the assay on SF-539; 43.8 µM (inactive) in the assay on SK-MEL-2; 18.6 µM (inactive) in the assay with UO-31. Besides, the GI50 with CAKI-1 is 46.3 µM (inactive); in the assay with NCI-H460 it was 47.6 µM (inactive).

Regarding `Cn1cnc([N+](=O)[O-])c1Sc1nnc(C(F)(F)F)n1C`, the GI50 in the assay with SK-OV-3 was > 100 µM (inactive); in the assay on NCI-H522, 10.4 µM (inactive); in the assay on 786-0, 39.4 µM (inactive); in the assay on ACHN, 23.6 µM (inactive); in the assay on A498, > 100 µM (inactive); in the assay on SF-268, 83.6 µM (inactive). The GI50 in the assay on HT-29 was 35.7 µM (inactive); in the assay with SF-295 it was > 100 µM (inactive); with COLO 205, 14.6 µM (inactive); in the assay on Malme-3M it was 15.1 µM (inactive); in the assay on CCRF-CEM it was 18.5 µM (inactive); in the assay on IGROV-1, 40 µM (inactive). Moreover, the GI50 in the assay on TK-10 is 26.4 µM (inactive); in the assay on HOP-62 it was > 100 µM (inactive); with OVCAR-5, > 100 µM (inactive); in the assay with SF-539, 20.5 µM (inactive); in the assay with SK-MEL-2 it was 21.9 µM (inactive); in the assay on UO-31 it was 26.5 µM (inactive). The GI50 in the assay on CAKI-1 is 62.1 µM (inactive); with NCI-H460, > 100 µM (inactive).

Consider `CC(NC(=O)OC(C)(C)C)C(=O)NC(Cc1ccccc1)C(=O)NCC(=O)O` (stereo not drawn) (Boc-Ala-Phe-Gly-OH; configuration not given here), for which the GI50 with SK-OV-3, with NCI-H522, in the assay on 786-0, in the assay with ACHN, in the assay on A498 and with SF-268 was > 100 µM (inactive) throughout. Also, the GI50 in the assay with HT-29, in the assay with SF-295, in the assay with COLO 205, with Malme-3M, in the assay with CCRF-CEM and in the assay on IGROV-1 was > 100 µM (inactive) in each case. Besides, the GI50 in the assay with TK-10, in the assay with HOP-62, in the assay with OVCAR-5, with SF-539, in the assay on SK-MEL-2 and with UO-31 was > 100 µM (inactive) throughout. Further, the GI50 in the assay with CAKI-1 and in the assay on NCI-H460 was > 100 µM (inactive) throughout.

Take `COC(=O)C1=C(C(=O)OC)C(C(=O)OC)C(C(=O)OC)C(C(=O)OC)(C(=O)OC)C(C(=O)OC)=C1C(=O)OC` (stereo not given): the GI50 was 27 µM (inactive) in the assay with SK-OV-3; 1.96 µM (inactive) in the assay with NCI-H522; 9.14 µM (inactive) in the assay with 786-0; 14.7 µM (inactive) in the assay on ACHN; 15.5 µM (inactive) with A498; 19 µM (inactive) in the assay on SF-268. The GI50 in the assay with HT-29 was 13.3 µM (inactive); with SF-295, 19.2 µM (inactive); in the assay with COLO 205 it was 4.27 µM (inactive); in the assay on Malme-3M, 5.77 µM (inactive); with CCRF-CEM it was 2.77 µM (inactive); in the assay on IGROV-1 it was 18.1 µM (inactive). The GI50 in the assay on TK-10 was 15.6 µM (inactive); in the assay with HOP-62 it was 32.3 µM (inactive); in the assay with OVCAR-5, 19.3 µM (inactive); in the assay with SF-539, 17.7 µM (inactive); in the assay on SK-MEL-2 it was 17.9 µM (inactive); in the assay with UO-31, 16.3 µM (inactive). The GI50 in the assay on CAKI-1 is 15.1 µM (inactive); with NCI-H460 it was 19 µM (inactive).

With `C=CC(Br)(CBr)CCC1OC1(C)C` (stereo not given), the GI50 in the assay with SK-OV-3 was 24.7 µM (inactive); in the assay with NCI-H522 it was 17.2 µM (inactive); in the assay on 786-0, 15.7 µM (inactive); in the assay on ACHN it was 18.2 µM (inactive); with A498, 21.7 µM (inactive); in the assay on SF-268, 16.7 µM (inactive). The GI50 in the assay with HT-29 was 17.4 µM (inactive); in the assay on SF-295, 16.4 µM (inactive); with COLO 205, 18.7 µM (inactive); with Malme-3M, 23.5 µM (inactive); with CCRF-CEM, 29.9 µM (inactive); in the assay with IGROV-1, 13.2 µM (inactive). Moreover, the GI50 in the assay on TK-10 was 20.2 µM (inactive); with HOP-62, 18.9 µM (inactive); in the assay on OVCAR-5, 18.9 µM (inactive); in the assay on SF-539 it was 19.5 µM (inactive); in the assay on SK-MEL-2, 15.1 µM (inactive); in the assay on UO-31, 18.2 µM (inactive). Also, the figures for the GI50 in the assay on CAKI-1 and in the assay with NCI-H460 were 19.5 µM (inactive) and 14.2 µM (inactive), respectively.
